Experimental data from ChEMBL document CHEMBL4725266, “Decaturenol A and known oxalicine related meroterpenoids isolated from Penicillium decaturense RO050, and their new biological activities” (Bioorg Med Chem Lett, 2020).
The source made the active and inactive calls. No cut-off for these calls is given here.

How the values were obtained:
BMDM = test: Inhibition of IL-10-induced CD163 expression in human MDM cells at 20 ug/ml incubated for 24 hrs by ELISA; type: functional, cell-based; details: dose 20.0 µg/ml
[1] = Cytotoxicity against human MDM cells assessed as reduction in cell viability at 40 ug/ml incubated for 24 hrs by MTT assay; type: cell-based; details: dose 40 µg/ml
[2] = Cytotoxicity against human MDM cells assessed as reduction in cell viability at 20 ug/ml incubated for 24 hrs by MTT assay; type: cell-based; details: dose 20 µg/ml
[3] = Cytotoxicity against human MDM cells assessed as reduction in cell viability at 20 ug/ml incubated for 48 hrs by MTT assay; type: cell-based; details: dose 20 µg/ml
HT-22 [4] = test: Cytotoxicity against mouse HT-22 cells assessed as reduction in cell viability at 10 uM incubated for 24 hrs by MTT assay; type: cell-based; details: ht-22, 24 h
HT-22 [5] = test: Protection against TM mediated ER stress-induced cell death in mouse HT-22 cells assessed as increase in cell viability at 10 uM incubated for 24 hrs by MTT assay; type: functional, cell-based
HT-22 [6] = test: Cytotoxicity against mouse HT-22 cells assessed as reduction in cell viability at 10 uM incubated for 24 hrs in presence of tunicamycin by MTT assay; type: cell-based; details: ht-22, 24 h
HT-22 [7] = test: Cytotoxicity against mouse HT-22 cells assessed as reduction in cell viability at incubated for 24 hrs by MTT assay; type: cell-based; details: HT-22, 24 h

Row | SMILES | inhibition (BMDM) | Activity [1] | Activity [2] | Activity [3] | Activity (HT-22 [4]) | Activity (HT-22 [5]) | Activity (HT-22 [6]) | IC50 (HT-22 [7]) [µM]
1 | CC1=CC[C@@H]2[C@@]3(C)CC[C@H](O)C(C)(C)[C@@H]3CC[C@@]2(C)[C@]12Cc1c(cc(-c3cccnc3)oc1=O)O2 | Active | Toxic | Non-Toxic | Toxic | – | – | – | –
2 | C/C(=C\CC/C(C)=C/Cc1c(O)cc(-c2cccnc2)oc1=O)CC/C=C(\C)CCC(O)C(C)(C)O (centres undefined) | Active | Toxic | Non-Toxic | Toxic | Non-Toxic | Active | – | –
3 | CC1=CC[C@@H]2[C@]34CC[C@](O)(OC3)C(C)(C)[C@@H]4CC[C@@]2(C)[C@@]12Oc1cc(-c3cccnc3)oc(=O)c1[C@@H]2O [DECATURIN B] | Active | Toxic | Non-Toxic | Toxic | Toxic | Active | – | –
4 | CC1=CC[C@@H]2[C@@]3(C)CCC(=O)C(C)(C)[C@@H]3CC[C@@]2(C)[C@]12Cc1c(cc(-c3cccnc3)oc1=O)O2 [DECATURIN D] | Active | Toxic | Non-Toxic | Toxic | Toxic | Active | – | –
5 | C=C(C)[C@@H]1CC[C@]2(C)[C@H](CC=C(C)[C@]23Oc2cc(-c4cccnc4)oc(=O)c2[C@@H]3O)[C@@]12CCC(=O)OC2 [OXALICINE A] | – | – | – | – | – | – | Toxic | 5.9
